Assays:
Assay type in all cases: functional, cell-based
[1] = test system: PC-3; assay: Cytostatic activity against human prostate cancer PC3 cell line
[2] = test system: MDA-MB-231; assay: Cytostatic activity against human breast cancer MDA-MB-231 cell line
[3] = test system: T-24; assay: Cytostatic activity against human bladder cancer T24 cell line

COC(=O)C(C)(C)NP(=O)(OC[C@H]1O[C@@H](n2cc(/C=C/Br)c(=O)[nH]c2=O)C[C@@H]1O)Oc1cccc2ccccc12 (stereo partly specified)
EC50 [1]: 65.9 µM | EC50 [2]: 0.32 µM

COC(=O)[C@H](CCSC)NP(=O)(OCC1OC(n2cc(/C=C/Br)c(=O)[nH]c2=O)CC1O)Oc1cccc2ccccc12 (stereo partly specified)
EC50 [1]: 44.6 µM | EC50 [2]: 28.1 µM | EC50 [3]: 19.6 µM

COC(=O)[C@H](C(C)C)P(=O)(OCC1OC(n2cc(/C=C/Br)c(=O)[nH]c2=O)CC1O)Oc1cccc2ccccc12 (stereo partly specified)
EC50 [1]: 15.8 µM | EC50 [2]: 14.8 µM | EC50 [3]: 43.5 µM

O=C(OCc1ccccc1)[C@H](Cc1ccccc1)NP(=O)(OCC1OC(n2cc(/C=C/Br)c(=O)[nH]c2=O)CC1O)Oc1cccc2ccccc12 (stereo partly specified)
EC50 [1]: 5.8 µM | EC50 [2]: 1.96 µM | EC50 [3]: 269 µM

CC(C)(NP(=O)(OC[C@H]1O[C@@H](n2cc(/C=C/Br)c(=O)[nH]c2=O)C[C@@H]1O)Oc1cccc2ccccc12)C(=O)OCc1ccccc1 (stereo partly specified)
EC50 [1]: 1.5 µM | EC50 [2]: 2.7 µM

CCC(C)[C@H](NP(=O)(OC[C@H]1O[C@@H](n2cc(/C=C/Br)c(=O)[nH]c2=O)C[C@@H]1O)Oc1cccc2ccccc12)C(=O)OCc1ccccc1 (stereo partly specified)
EC50 [1]: 1.4 µM | EC50 [2]: 130 µM

C[C@@H](NP(=O)(OCC1OC(n2cc(/C=C/Br)c(=O)[nH]c2=O)CC1O)Oc1cccc2ccccc12)C(=O)OCc1ccccc1 (stereo partly specified)
EC50 [1]: 6.1 µM | EC50 [2]: 6.3 µM | EC50 [3]: 2.8 µM

COC(=O)[C@@H](NP(=O)(OCC1OC(n2cc(/C=C/Br)c(=O)[nH]c2=O)CC1O)Oc1cccc2ccccc12)c1ccccc1 (stereo partly specified)
EC50 [1]: 1.7 µM | EC50 [2]: 105 µM

CC(C)[C@H](NP(=O)(OCC1OC(n2cc(/C=C/Br)c(=O)[nH]c2=O)CC1O)Oc1cccc2ccccc12)C(=O)OCc1ccccc1 (stereo partly specified)
EC50 [1]: 8.3 µM | EC50 [2]: 5.9 µM | EC50 [3]: 12.7 µM

C[C@H](NP(=O)(O)Oc1cccc2ccccc12)C(=O)OCc1ccccc1
EC50 [1]: 1.7 µM | EC50 [2]: 15.2 µM

COC(=O)[C@H](Cc1ccccc1)NP(=O)(OCC1OC(n2cc(/C=C/Br)c(=O)[nH]c2=O)CC1O)Oc1cccc2ccccc12 (stereo partly specified)
EC50 [1]: 10.2 µM | EC50 [2]: 8.5 µM | EC50 [3]: 5.3 µM

C[C@H](NP(=O)(OCC1OC(n2cc(/C=C/Br)c(=O)[nH]c2=O)CC1O)Oc1cccc2ccccc12)C(=O)OC(C)(C)C (stereo partly specified)
EC50 [1]: 11 µM | EC50 [2]: 4.8 µM | EC50 [3]: 4 µM

CCC(C)[C@H](NP(=O)(OC[C@H]1O[C@@H](n2cc(/C=C/Br)c(=O)[nH]c2=O)C[C@@H]1O)Oc1cccc2ccccc12)C(=O)OC (stereo partly specified)
EC50 [1]: 6.9 µM | EC50 [2]: 1.5 µM

COC(=O)[C@@H]1CCCN1P(=O)(OCC1OC(n2cc(/C=C/Br)c(=O)[nH]c2=O)CC1O)Oc1cccc2ccccc12 (stereo partly specified)
EC50 [1]: 10.5 µM | EC50 [2]: 6.5 µM | EC50 [3]: 0.4 µM

Source: ChEMBL document CHEMBL1148610, “Novel potential anticancer naphthyl phosphoramidates of BVdU: separation of diastereoisomers and assignment of the absolute configuration of the phosphorus center” (J Med Chem, 2006)
